{"source": "patent EP0307077A1", "about": "“Tetrahydrocarbazoles for the improvement of cyclosporin therapy” (MERCK FROSST CANADA INC., priority 1987, dated 1989)", "key": {"rats": {"test_system": "rats", "conditions": "cyclosporine A nephrotoxicity model, Penico et al. 1986; cited from earlier work"}, "[1]": {"test_system": "female spontaneously hypertensive (SHR) rats", "assay": "Cyclosporine A-induced nephrotoxicity, 14 days dosing, serum BUN (Example 63)", "type": "in vivo", "protocol": "All experiments were carried out using female spontaneously hypertensive (SHR) rats, weight range 160-200 gm, obtained from Taconic Farms. […] Three thromboxane antagonists have been studied. […] Thromboxane antagonists have been administered as the sodium salt dissolved in saline, the sodium salt dissolved in 0.1% NaHCO3 or the free acid suspended in 1% Methocel."}, "[2]": {"test_system": "female spontaneously hypertensive (SHR) rats", "assay": "Cyclosporine A-induced nephrotoxicity, pilot study, 2 weeks dosing, serum BUN and creatinine (Example 64)", "type": "in vivo", "conditions": "for Serum BUN / Serum Creatinine: 2 weeks, means ± S.E.M. (n = 8)"}, "[3]": {"test_system": "female spontaneously hypertensive (SHR) rats", "assay": "Cyclosporine A-induced nephrotoxicity, 5 week study, serum BUN, serum creatinine, creatinine clearance (Example 64)", "conditions": "for Mean Serum BUN Values: Compound 63 (10 mg/kg/day) and Cyclosporine A; for Mean Serum Creatinine Levels: Compound 63 (10 mg/kg/day) and Cyclosporine", "protocol": "Experiments were carried out using groups of 6 female spontaneously hypertensive (SHR) rats, weight range 166-194 gm, obtained form Taconic Farms. […] At weekly intervals form 2 weeks onwards, animals were placed in individual metabolism cages and 24 hr urin samples collected, the volume measured and the creatinine levels determined (Lakeshore Diagnostic Laboratories). Creatinine clearance per rat was calculated from the formula: [formula] where Ucr = concentration of creatine in urine • Per = concentration of creatinine in plasma • V = volume of urine flow in ml/min\nAfter removal from the metabolism cage, a blood sample was taken from each rat for determination of serum BUN and creatinine (Lakeshore Diagnostic Laboratories). In a preliminary study, groups of 8 rats were dosed as above for 2 weeks only and serum samples removed for determination of BUN and creatinine as above."}, "[4]": {"conditions": "Cyclosporine A and Compound 63 3 mg/kg/day"}, "[5]": {"conditions": "Cyclosporine A and Compound 63 10 mg/kg/day"}}, "data": [{"smiles": "Cc1c(Cn2ccnc2)c2ccccc2n1CCC(=O)O", "note": "[Uk-38,485]", "values": [{"measurement": "glomerular filtration rate", "setting": "rats", "value": "increased"}, {"measurement": "urinary TxB2", "setting": "rats", "value": "reduced"}]}, {"smiles": "O=C(O)CC1CCCc2c1n(Cc1ccc(Cl)cc1)c1c(F)cc(F)cc21", "note": "(single isomer, unassigned; (-)) [Compound 37, (-)-9 p-Chlorobenzyl-6,8-difluoro-1,2,3,4-tetrahydrocarbazol-1-yl-acetic acid]", "values": [{"measurement": "inhibition of the rise in serum BUN", "setting": "[1]; both doses (3 and 10 mg/kg/day), suspension of the free acid, with cyclosporine A", "value": "significant inhibition"}]}, {"smiles": "CS(=O)(=O)c1ccc(Cn2c3c(c4cc(F)cc(F)c42)CCCC3CC(=O)O)cc1", "note": "(single isomer, unassigned) [Compound 63]", "values": [{"measurement": "reduction of the increase in serum BUN", "setting": "[2]; 3 or 10 mg/kg/day with cyclosporine A, pilot study", "value": "significantly reduced the increase in serum BUN to control levels"}, {"measurement": "Serum BUN", "setting": "[2]; [4]", "value": "20.8 ± 1.0", "unit": "mg/dL"}, {"measurement": "Serum Creatinine", "setting": "[2]; [4]", "value": "0.64 ± 0.02", "unit": "mg/dL"}, {"measurement": "Serum BUN", "setting": "[2]; [5]", "value": "22.2 ± 0.7", "unit": "mg/dL"}, {"measurement": "Serum Creatinine", "setting": "[2]; [5]", "value": "0.65 ± 0.04", "unit": "mg/dL"}, {"measurement": "reduction of the increase in serum creatinine", "setting": "[2]; higher dose (10 mg/kg/day) with cyclosporine A, pilot study, p = 0.07", "value": "failed to reach statistical significance"}, {"measurement": "reduction of the increase in serum creatinine", "setting": "[2]; lower dose (3 mg/kg/day) with cyclosporine A, pilot study", "value": "significantly reduced the increase in serum creatinine"}, {"measurement": "Mean Serum BUN Values", "setting": "[3]; week 2", "value": "26.4 ± 0.9", "unit": "mg/dL"}, {"measurement": "Mean Serum BUN Values", "setting": "[3]; week 3", "value": "22.3 ± 1.7", "unit": "mg/dL"}, {"measurement": "Mean Serum BUN Values", "setting": "[3]; week 4", "value": "24.0 ± 1.4", "unit": "mg/dL"}, {"measurement": "Mean Serum BUN Values", "setting": "[3]; week 5", "value": "21.0 ± 1.1", "unit": "mg/dL"}, {"measurement": "Mean Serum Creatinine Levels", "setting": "[3]; week 2", "value": "0.51 ± 0.03", "unit": "mg/dL"}, {"measurement": "Mean Serum Creatinine Levels", "setting": "[3]; week 3", "value": "0.44 ± 0.01", "unit": "mg/dL"}, {"measurement": "Mean Serum Creatinine Levels", "setting": "[3]; week 4", "value": "0.54 ± 0.02", "unit": "mg/dL"}, {"measurement": "Mean Serum Creatinine Levels", "setting": "[3]; week 5", "value": "0.42 ± 0.01", "unit": "mg/dL"}, {"measurement": "prevention of cyclosporine A-induced changes (serum BUN, creatinine clearance)", "setting": "[3]; cotreatment with Compound 63 (10 mg/kg/day), 5 week study", "value": "prevented"}, {"measurement": "cyclosporine A-induced nephrotoxicity", "setting": "[3]; overall conclusion of Example 64", "value": "inhibits"}, {"measurement": "creatinine clearance, Compound 63 and cyclosporine A compared to cyclosporine A alone", "setting": "[3]; week 3", "value": "significantly different"}, {"measurement": "creatinine clearance, Compound 63 and cyclosporine A compared to cyclosporine A alone", "setting": "[3]; week 5, p = 0.07", "value": "just failed to reach statistical significance"}, {"measurement": "serum BUN, Compound 63 and cyclosporine A compared to cyclosporine A alone", "setting": "[3]; weeks 3 and 5", "value": "significantly different"}]}, {"smiles": "CS(=O)(=O)c1ccc(Cn2c3c(c4cc(F)cc(F)c42)CCCC3CC(=O)O)cc1", "note": "(single isomer, unassigned; (-)) [Compound 50, (-)9-p-Methylsulfonylbenzyl-6,8-difluoro-1,2,3,4-tetrahydrocarbazol-1-yl acetic acid]", "values": [{"measurement": "effects on cyclosporine A-induced rises in serum BUN", "setting": "[1]; both 3 and 10 mg/kg/day, suspension of the free acid (Table 4)", "value": "effective"}]}, {"smiles": "O=C(O)CC1CCCc2c1n(Cc1ccc(Cl)cc1)c1ccc(F)cc21", "note": "(racemic) [Compound 1, 9-p-chlorobenzyl-6-fluoro-1,2,3,4-tetrahydracarbazol-1-yl-acetic acid]", "values": [{"measurement": "inhibition of the increase in serum BUN", "setting": "[1]; Table 1 (Experiment 1), 3 mg/kg/day in saline with cyclosporine A", "value": "significant inhibition"}]}]}
